One assay has as its system dogs. Put plainly: Overall conclusions and meta-analysis across Studies 1-4. It is filed as in vivo, dog. As for the experimental part:
Three delivery methods were examined (collar, spray, and room diffuser) and conclusions may be drawn about their efficacy. First, the pheromones were similar in efficacy when applied as a collar or spray. When used as a room diffuser, the pheromones/INTEROMONE® compositions had fewer significant effects compared with when they were delivered in collar or spray form. […] Meta-analyses were performed across studies to identify potential over-arching effects (FIGS. 18A and B). […] The reaction of most dogs to handling or startle was to go lay down; but the dogs exposed to rabbit INTEROMONE®were more likely to sit. Other than this general effect, each other finding must be considered within the context of the form of delivery (spray, collar or room diffuser) and the response of individual dog.

A further assay deals with nervous dogs. Put plainly: Example 11 Study 3: DAP spray versus RP spray with startle. It counts as in vivo, dog. The text has this:
Eight dogs were obtained from a local contract research facility and assessment was made as to general dog health, behavior and heart rate. The dogs were estimated to be 2 to 7 years of age, mixed breed, and weighed averagely 8.1±0.18 kg at the start of the studies. […] Upon arrival each dog was bathed using shampoo containing flea and tick medicine (Hartz Mountain Corp. Secaucus, N.J. USA), and their body hair was shaved. Each dog was kept in a single room, which had 100% fresh air intake and exhaust. The dogs were fed twice (am and pm) per day ad libitum. At that time, the room was cleaned and the dogs obtained extra exercise. Water was available ad libitum.
Dog behavior was captured on video media at a sampling rate of 30 frames per second. Video records were reviewed in real time (with tape playing 30 frames per second). A scan sampling method was used to record dog behaviors each minute or each 5 minutes depending on the particular study. If the sample period was 120 minutes with four periods (0-30=0, 30-60=30, 60-90=60, and 90-120-90 min), then a scan sample was recorded each 1 minute. If the sample period was 24 hours, then the scan sample was collected each 5 minutes and summarized each hour. For example, pacing is when a dog walks in a stereotyped manner for minutes to hours. Because it was not easy to distinguish walking from pacing, the behaviors were merged. In addition, the video records could not clearly distinguish lying down and awake versus lying down and sleeping, therefore there was no separate description for these two behaviors.
Heart rate during the studies was measured by the use of a non-invasive telemetry system (Data Science International, St. Paul, Minn., USA). Leads were placed in contact with the dogs' shaved skin. Sensors measured heart rate, surface temperature and general activity. Data were transmitted to a receiving computer in another room. The sampling rate varied with the study, but was 5 seconds for the first two hours after treatments and then each 1 minute for 24 hours (depending on the particular study). For surface temperature measurements of the dog subjects, a thermistor was located against the skin of each dog. It recorded the surface temperature to the neared 0.1° C. on the same interval as the heart rate data.
Behavior and physiological data (heart rate and surface temperature) were analyzed by least squares analysis of variance using SAS (2011) software and the general linear models procedures. The experimental design of each study was a specialized randomized complete block in a Latin square design with data collected as a split plot over time. Dogs represented the blocks. Each dog received each treatment randomly in successive days or weeks. The statistical model included effects of treatment (TRT), dog, dog by treatment (TRT*DOG; error term used to assess treatment and dog effects), time (HR), treatment by time (TRT*HR), and residual error (SE; used to test remaining effects). Behavior data were collected and analyzed as counts per time period, but for clarity of presentation, the data are reported as percentage of time dogs engaged in each behavior.
In Study 1 and 2, the DAP was applied as a collar and the rabbit pheromone as a spray. To test if the physical form of the pheromone/INTEROMONE® impacted its efficacy, Study 3 examined the behavior and heart rate effects of Dog Appeasing Pheromone (DAP) and rabbit pheromone (RP) both applied as a spray after startle in order to obtain a direct comparison between sprays. Accordingly, Study 3 examined the relative effect of DAP spray (DAPS) and RP spray on the behavior and heart rate of the dog subjects. Both treatments were given to each dog in a random order. In this study, the Behavior data were collected from dogs 1-8 while heart rate data were collected from dogs 1-4.

As for `C/C=C(\C)C=O` [RP, 2-methylbut-2-enal], in the assay on dogs (Studies 1, 2 and 4, FIG. 18), the “behaviors in meta-analysis across studies” value is on record as “Only dog sitting behavior was increased”. For the same molecule, the “overall effect on dog behavior and physiology” value with dogs (collar, spray and room diffuser, all four studies) is “most consistent or largest effect on dog behavior and physiology”. Moreover, in the assay on nervous dogs (DAPS or RP spray with startle), the Defecate was 0.93 % of time, the Drink is 0 % of time, the Eat was 0 % of time and the Lick self was 0 % of time. Also, in the assay on nervous dogs (DAPS or RP spray with startle), the Lying down was 43.8 % of time, the Pace-walk was 9.8 % of time, the Sitting is given as 35.4 % of time and the Standing is given as 3.7 % of time. Besides, the Urinate in the assay on nervous dogs (DAPS or RP spray with startle) was 0 % of time. In the assay with nervous dogs (RP spray versus DAP spray, startle), the “sitting, main effect of treatment” value is “tended to sit more (P=0.068) than DAP sprayed dogs”. For the same molecule, the “heart rate change relative to time zero” value in the assay on nervous dogs (spray and startle, dogs 1-4, FIG. 14B) is on record as “generally unchanged over time, although were lower than baseline rate”. In the assay with nervous dogs (sprays, during startle, FIG. 13), the “lying down of individual dogs” value is reported as “Dog 3 showed increased lying down”. Besides, the “pacing-walking and standing of individual dogs” value in the assay on nervous dogs (sprays, startle, FIGS. 11 and 12) is “dogs 1 and 4 had increased pacing-walking”.
